Experimental data published in patent publication US10300042B2, “Apremilast for the treatment of a liver disease or a liver function abnormality” (Celgene Corporation, priority 2014, dated 2019).

How the values were obtained:
Alanine Aminotransferase = assay: ALT levels in PSA-005 (psoriatic arthritis); format: in vivo, human; conditions: for ALT High to Normal, percent of patients / ALT Net Benefit / ALT Normal to High, percent of patients: end of treatment (week 24)
Source text: (§1) Apremilast was studied in a Phase 3 trial in patients with active psoriatic arthritis who have not been previously treated with disease-modifying antirheumatic drugs. […] The improvement in mild baseline liver function test abnormalities has been observed with apremilast daily use without any prescribed changes in physical activity, social or dietary habits. […] See Tables 25 to 34 from PSA-005 studies.

[1] = system: patients with moderate to severe plaque psoriasis; assay: Pruritus in ESTEEM 2; format: in vivo, human; conditions: Week 16, 30 mg BID
Method: Patients were randomized with Apremilast in an amount of 30 mg twice per day or placebo for the first 16 weeks, and from Weeks 16 to 32, all patients received Apremilast in an amount of 30 mg twice per day.

PDE6 = PDE6 enzyme assay; format: biochemical; conditions: at 10 μM
Method: (§2) PDE1, 2, 3 and 5 enzyme assays were prepared as described by Hidaka and Asano. Biochem. Biophys. Acta., 1976, 429:485; see also Nicholsen et al., Trends Pharmaco. Sci., 1991, 12:19. The PDE6 enzyme assay was prepared according to Baehr et al., J. Biol. Chem., 1979, 254:11669 and Gillespie et al., Mol. Pharm., 1989, 36: 773. The PDE7 enzyme assay was prepared according to Bloom and Beavo. Proc. Natl. Acad. Sci. USA, 1996, 93:14188-92.

PDE1 = PDE1 enzyme assay; format: biochemical; conditions: at 10 μM
Method: as §2

[2] = system: Aspartate Aminotransferase; assay: AST levels in PSA-005 (psoriatic arthritis); format: in vivo, human; conditions: for AST High to Normal, percent of patients / AST Net Benefit / AST Normal to High, percent of patients: end of treatment (week 24)
Source text: as §1

[3] = Baseline High, Week 24, 20 mg BID
[4] = Baseline High, Week 24, 30 mg BID
[5] = Baseline Normal, Week 24, 20 mg BID
[6] = Baseline Normal, Week 24, 30 mg BID
[7] = Baseline Total, Week 24, 20 mg BID
[8] = Baseline Total, Week 24, 30 mg BID

CCOc1cc([C@@H](CS(C)(=O)=O)N2C(=O)c3cccc(NC(C)=O)c3C2=O)ccc1OC [Apremilast, (+)-2-[1-(3-ethoxy-4-methoxyphenyl)-2-methylsulfonylethyl]-4-acetylaminoisoindoline-1,3-dione]
ALT High to Normal, percent of patients (Alanine Aminotransferase; 20 BID): 87.5%
ALT Net Benefit (Alanine Aminotransferase; 20 BID): 53.8%
ALT Normal to High, percent of patients (Alanine Aminotransferase; 20 BID): 3.3%
ALT High to Normal, percent of patients (Alanine Aminotransferase; 30 BID): 72.7%
ALT Net Benefit (Alanine Aminotransferase; 30 BID): 44.4%
ALT Normal to High, percent of patients (Alanine Aminotransferase; 30 BID): 4.9%
ALT High to Normal, Difference between Placebo and APR 30 BID (Alanine Aminotransferase; 30 BID, week 24): 22.7%
ALT Net Benefit, Difference between Placebo and APR 30 BID (Alanine Aminotransferase; 30 BID, week 24): 24.4%
ALT Normal to High, Difference between Placebo and APR 30 BID (Alanine Aminotransferase; 30 BID, week 24): −1.0%
ALT High to Normal, Difference between Placebo and APR 30 BID (Alanine Aminotransferase; 30 BID, week 24, listed as APR): 22.7%
ALT High, % of patients (Alanine Aminotransferase; [3]): 12.5%
ALT Low, % of patients (Alanine Aminotransferase; [3]): 0.0%
ALT Normal, % of patients (Alanine Aminotransferase; [3]): 87.5%
ALT High, % of patients (Alanine Aminotransferase; [4]): 27.3%
ALT Low, % of patients (Alanine Aminotransferase; [4]): 0.0%
ALT Normal, % of patients (Alanine Aminotransferase; [4]): 72.7%
ALT High, % of patients (Alanine Aminotransferase; [5]): 3.3%
ALT Low, % of patients (Alanine Aminotransferase; [5]): 0.0%
ALT Normal, % of patients (Alanine Aminotransferase; [5]): 96.7%
ALT High, % of patients (Alanine Aminotransferase; [6]): 4.9%
ALT Low, % of patients (Alanine Aminotransferase; [6]): 0.0%
ALT Normal, % of patients (Alanine Aminotransferase; [6]): 95.1%
ALT High, % of patients (Alanine Aminotransferase; [7]): 3.8%
ALT Low, % of patients (Alanine Aminotransferase; [7]): 0.0%
ALT Normal, % of patients (Alanine Aminotransferase; [7]): 96.2%
ALT High, % of patients (Alanine Aminotransferase; [8]): 6.5%
ALT Low, % of patients (Alanine Aminotransferase; [8]): 0.0%
ALT Normal, % of patients (Alanine Aminotransferase; [8]): 93.5%
Baseline High ALT: High % (Alanine Aminotransferase; Week 4, 20 mg BID): 30.0%
Baseline High ALT: Normal % (Alanine Aminotransferase; Week 4, 20 mg BID): 70.0%
Baseline High ALT: High % (Alanine Aminotransferase; Week 4, 30 mg BID): 72.7%
Baseline High ALT: Normal % (Alanine Aminotransferase; Week 4, 30 mg BID): 27.3%
Baseline High ALT: High % (Alanine Aminotransferase; Week 16, 20 mg BID): 12.5%
Baseline High ALT: Normal % (Alanine Aminotransferase; Week 16, 20 mg BID): 87.5%
Baseline High ALT: High % (Alanine Aminotransferase; Week 16, 30 mg BID): 36.4%
Baseline High ALT: Normal % (Alanine Aminotransferase; Week 16, 30 mg BID): 63.6%
Baseline High ALT: High % (Alanine Aminotransferase; Week 24, 20 mg BID): 12.5%
Baseline High ALT: Normal % (Alanine Aminotransferase; Week 24, 20 mg BID): 87.5%
Baseline High ALT: High % (Alanine Aminotransferase; Week 24, 30 mg BID): 27.3%
Baseline High ALT: Normal % (Alanine Aminotransferase; Week 24, 30 mg BID): 72.7%
Change in Pruritus Visual Analog Scale (mm ± SD) [1]: −33.5 (±35.46) mm
% inhibition PDE6 (PDE6): −6%
% inhibition PDE1 (PDE1): 23%
AST High to Normal, percent of patients ([2]; 20 BID): 60.0%
AST Net Benefit ([2]; 20 BID): 37.5%
AST Normal to High, percent of patients ([2]; 20 BID): 2.0%
AST High to Normal, percent of patients ([2]; 30 BID): 75.0%
AST Net Benefit ([2]; 30 BID): 60.0%
AST Normal to High, percent of patients ([2]; 30 BID): 2.1%
AST High to Normal, Difference between Placebo and APR 30 BID ([2]; 30 BID, week 24): 25%
AST Net Benefit, Difference between Placebo and APR 30 BID ([2]; 30 BID, week 24): 35.0%
AST Normal to High, Difference between Placebo and APR 30 BID ([2]; 30 BID, week 24): −1.8%
AST High to Normal, Difference between Placebo and APR 30 BID ([2]; 30 BID, week 24, listed as APR): 25.0%
AST High, % of patients [2, 3]: 40.0%
AST Low, % of patients [2, 3]: 0.0%
AST Normal, % of patients [2, 3]: 60.0%
AST High, % of patients [2, 4]: 25.0%
AST Low, % of patients [2, 4]: 0.0%
AST Normal, % of patients [2, 4]: 75.0%
AST High, % of patients [2, 5]: 2.0%
AST Low, % of patients [2, 5]: 0.0%
AST Normal, % of patients [2, 5]: 98.0%
AST High, % of patients [2, 6]: 2.1%
AST Low, % of patients [2, 6]: 0.0%
AST Normal, % of patients [2, 6]: 97.9%
AST High, % of patients [2, 7]: 3.2%
AST Low, % of patients [2, 7]: 0.0%
AST Normal, % of patients [2, 7]: 96.8%
AST High, % of patients [2, 8]: 3.9%
AST Low, % of patients [2, 8]: 0.0%
AST Normal, % of patients [2, 8]: 96.1%
Baseline High AST: High % ([2]; Week 4, 20 mg BID): 71.4%
Baseline High AST: Normal % ([2]; Week 4, 20 mg BID): 28.6%
Baseline High AST: High % ([2]; Week 4, 30 mg BID): 50.0%
Baseline High AST: Normal % ([2]; Week 4, 30 mg BID): 50.0%
Baseline High AST: High % ([2]; Week 16, 20 mg BID): 20.0%
Baseline High AST: Normal % ([2]; Week 16, 20 mg BID): 80.0%
Baseline High AST: High % ([2]; Week 16, 30 mg BID): 41.7%
Baseline High AST: Normal % ([2]; Week 16, 30 mg BID): 58.3%
Baseline High AST: High % ([2]; Week 24, 20 mg BID): 40.0%
Baseline High AST: Normal % ([2]; Week 24, 20 mg BID): 60.0%
Baseline High AST: High % ([2]; Week 24, 30 mg BID): 25.0%
Baseline High AST: Normal % ([2]; Week 24, 30 mg BID): 75.0%
